Source: PMC4230943, “Mimicking Hypoxia to Treat Anemia: HIF-Stabilizer BAY 85-3934 (Molidustat) Stimulates Erythropoietin Production without Hypertensive Effects” (PLoS ONE, 2014)

Key:
male Wistar rats [1] = assay: Subtotal nephrectomy (remnant kidney) model; format: in vivo, rat
Experimental: In the chronic disease models of subtotal nephrectomy and inflammation, the sodium salt of BAY 85-3934 was used. For administration in drinking water, BAY 85-3934 sodium and enalapril were prepared as 100 mM sodium bicarbonate saline solutions (adjusted to pH 7) at final concentrations of 80 ppm and 30 ppm, respectively. Sham and vehicle control animals received saline only. Unless otherwise stated, chemicals and reagents were purchased from Sigma-Aldrich.
Subtotal nephrectomy was conducted in adult male Wistar rats. Body weight, blood pressure, hematocrit, and blood cell counts were determined at baseline and thereafter at weekly intervals. At baseline, rats were randomly distributed into two groups: those that underwent subtotal nephrectomy and those that underwent a sham procedure without reduction of renal mass. Surgery was performed in deeply anesthetized (2% isoflurane in air) animals. Kidneys were accessed via a dorsolateral incision of the body wall of about 2 cm in length. The right kidney was removed after ligature of the renal peduncle, and subsequently the upper and lower pole of the left kidney were removed, followed by careful hemostasis. Approximately one third of the initial kidney mass remained (removed tissue was weighed to check this was achieved). In the sham-treated animals, both kidneys were exposed before closure of the wound. Three weeks after surgery, animals were allocated to each group in equal proportions with respect to systolic blood pressure and hematocrit values. For 5 weeks, animals were treated twice weekly with rhEPO (100 IU/kg), or once daily with […] (2.5 mg/kg or 5.0 mg/kg) or vehicle. In experiments using enalapril or a combination of BAY 85-3934 sodium and enalapril, study drugs were administered with drinking water. BAY 85-3934 sodium and enalapril were administered in drinking water at concentrations of 80 ppm and 30 ppm, respectively. This was equivalent to approximately 2 mg/kg/day for enalapril and 5 mg/kg/day for BAY 85-3934. Systolic blood pressure and heart rate were determined using the tail-cuff method (a semi-automatic, non-invasive blood pressure monitor; TSE Systems), with three repeated measurements per animal.
(§1) EPO was measured in plasma samples taken from rodents using a commercial ELISA kit (R&D Systems), according to the manufacturer’s instructions. Relative plasma EPO levels were given in picograms per milliliter. In cynomolgus monkeys, EPO was measured using a combination anti-human EPO ELISAs (R&D Systems and Roche Diagnostics), with human EPO as a standard. Values were given as units per liter. For determination of plasma prorenin from rats, a commercial ELISA (Oxford Biomedical Research) was used according to the manufacturer’s instructions. Hemoglobin in rodent blood samples was determined on a Cell-Dyn 3700 apparatus (Abbott Diagnostics). BAY 85-3934 plasma concentrations were determined after protein precipitation with acetonitrile/ammonium acetate using an internal standard, followed by separation using HPLC/mass spectrometry.
As well as anemia and inflammation, CKD is often accompanied by hypertension, upon which treatment with rhEPO may have an unfavorable impact. The effects of BAY 85-3934 were compared with rhEPO in the remnant kidney (subtotal nephrectomy) model in rats.

male Wistar rats [2] = assay: Comparison of oral BAY 85-3934 with rhEPO on erythropoiesis; format: in vivo, rat; conditions: BAY 85-3934 2.5 mg/kg once daily oral; rhEPO 25, 50, 100 IU/kg twice weekly s.c.; p<0.001 at day 30
Experimental: Male Wistar rats (240–340 g in body weight) were housed with five animals per cage for at least 1 week before experimentation. Blood samples from rats were collected under anesthesia (2% isoflurane in air) by puncturing the retro-orbital vein plexus with a glass capillary. In a repeat-dose, 26-day experiment, animals were administered vehicle or BAY 85-3934 at doses of 0.5 mg/kg, 1.25 mg/kg, 2.5 mg/kg, and 5 mg/kg. PCV was determined at baseline and at weekly intervals after centrifugation in a hematocrit capillary tube (Brand) for 10 min at full speed in a Haemofuge centrifuge (Heraeus). The number of reticulocytes in 5 µl blood was counted after staining with thiazol orange (Becton Dickinson) according to the manufacturer’s instructions by FACS analysis on a BD FACSCalibur system (Becton Dickinson). The efficacy of BAY 85-3934 (2.5 mg/kg, once-daily, oral) was also compared with that of rhEPO (25 IU/kg, 50 IU/kg, and 100 IU/kg, twice-weekly, s.c. injection). […] The efficacy of oral treatment with BAY 85-3934 was compared with that of standard rhEPO treatment in male Wistar rats.

cynomolgus monkeys = assay: Comparison of BAY 85-3934 with rhEPO (single dose and 14-day repeat dose); format: in vivo, cynomolgus monkey
Experimental: Male and female cynomolgus monkeys (2.8–5.6 kg in body weight) were used, which were housed two per cage. Blood samples from conscious cynomolgus monkeys were taken by puncturing a superficial vein. In a 5-day, repeat-dose study of plasma EPO response, BAY 85-3934 was administered at doses of 0.5 mg/kg and 1.5 mg/kg at 0 h, 24 h, 48 h, 72 h, and 96 h. Blood samples were taken at 7 h, 31 h, 55 h, 79 h, 103 h, and 168 h. Erythropoietic parameters were also evaluated after a 2-week treatment period with s.c. administration of rhEPO (100 IU/kg twice weekly at days 1, 4, 8, and 11) and BAY 85-3934 (1.5 mg/kg) once daily.
as §1
In a further study, the efficacy of oral treatment with BAY 85-3934 was evaluated in comparison with rhEPO. Animals were administered a single dose of rhEPO (100 IU/kg) by s.c. injection or BAY 85-3934 (1.5 mg/kg, oral). After administration of rhEPO, plasma concentrations of rhEPO were more than 8-fold higher than the endogenous EPO levels induced by treatment with BAY 85-3934 (Fig. 3B). The area under the curve (AUC) of rhEPO was more than 6-fold higher than the AUC of endogenous EPO. […] Mean reticulocyte counts were 2-fold higher after treatment with rhEPO than after treatment with BAY 85-3934, but returned to baseline values 8 days after treatment cessation.

[3] = single dose rhEPO 100 IU/kg s.c. vs BAY 85-3934 1.5 mg/kg oral
[4] = drinking water, 5 weeks: BAY 85-3934 sodium 80 ppm, enalapril 30 ppm

| Molecule | systolic blood pressure compared with untreated controls (male Wistar rats [1]; 5 weeks, tail-cuff) | mean PCV (male Wistar rats [1]; BAY 85-3934 2.5 and 5 mg/kg once daily, rhEPO 100 IU/kg twice weekly) | cardiac hypertrophy (male Wistar rats [1]; data not shown) | hematocrit compared with the control group (male Wistar rats [2]) | mean reticulocyte counts relative to BAY 85-3934 treatment (cynomolgus monkeys; 14-day repeat dose) [fold] | time after treatment cessation at which reticulocyte counts returned to baseline (cynomolgus monkeys; 14-day repeat dose) [days] | mean gains of hemoglobin and red blood cells, both treatments compared (cynomolgus monkeys; 14 days, rhEPO 100 IU/kg twice weekly s.c., BAY 85-3934 1.5 mg/kg once daily) | AUC of rhEPO relative to AUC of endogenous EPO (cynomolgus monkeys; [3]) | plasma rhEPO concentration relative to endogenous EPO induced by BAY 85-3934 (cynomolgus monkeys; [3]) | mean PCV (male Wistar rats [1]; [4]) | mean systolic blood pressure compared with control (male Wistar rats [1]; [4]) | plasma prorenin levels (male Wistar rats [1]; [4]) |
| --- | --- | --- | --- | --- | --- | --- | --- | --- | --- | --- | --- | --- |
| rhEPO: Human recombinant EPO (Ortho Biotech), s.c. injection | no difference | significantly increased | manifested | significant increase | 2 | 8 | almost completely congruent over time | more than 6 fold | more than 8 fold |  |  |  |
| [Na+].[O-]c1c(-n2ccnn2)cnn1-c1cc(N2CCOCC2)ncn1 [BAY 85-3934 sodium] |  |  |  |  |  |  |  |  |  | increasing | significantly reduced |  |
| CCOC(=O)[C@H](CCc1ccccc1)N[C@@H](C)C(=O)N1CCC[C@H]1C(=O)O [enalapril, reference compound] |  |  |  |  |  |  |  |  |  | remained unchanged | significant reduction | reversion of plasma prorenin levels to normal values |
